Laboratory results reported in patent publication US20220380430A1, “Non-Transgenic Functional Rescue of Neuropeptides” (Worcester Polytechnic Institute, priority 2021, published 2022).
“Also recorded” adds a separate entry of the source. No end group written: not given here.

Experiments:
[1] = tested on: ins-6 lof worms; test: NaCl chemotaxis assay after rescue-by-feeding; format: in vivo, C. elegans; conditions: 750 mM NaCl, in words
Protocol: All animals were maintained on bacterial lawns of OP50 E. coli, at 20° C., on NGM agar plates until the start of experiments. Mutant or control animals were transferred onto lawns of DH5α E. coli expressing either scramble peptide or the rescue peptide-of-interest on NGM plates containing […] AMP and 1 mM IPTG. Animals were reared on the peptide-expressing lawns for at least 48 hours at 20° C. before assaying for rescue of mutant phenotype at the appropriate developmental stage.
A salt chemotaxis assay was performed as previously described in Leinwand, S. G. & Chalasani, S. H. Nature neuroscience 16, 1461-1467 (2013); Bargmann, C. I. & Horvitz, H. R. Neuron 7, 729-742 (1991) to test the functionality of ins-6 after rescue-by-feeding. Wild-type (N2) and ins-6 worms were fed either scramble or INS-6 peptide passing 4-6 L4 larval onto an NGM plate containing […] AMP and 1 mM IPTG with 75 μL of peptide OD600=1.0. These worms were grown at 20° C. for about 4 days until the progeny of the initial L4 worms were young adults.
The day prior to testing, a thin, 10 mL layer of agar was added to 10 cm petri dishes to generate a 10 cm Chemotaxis Plates (5 mM KPO4 (pH 6.0), 1 μM MgSO4, 1 μM CaCl2), 20 g/L agar, and 8 g/L Difco Nutrient Broth). To prepare the “high salt” plates, 750 mM NaCl was added prior to plate pouring. The high salt plate were stored at 4° C. for up to one month, while the Chemotaxis Plates were made one day prior to testing. To create the high and low salt plugs, the back end of a Pasteur pipette was used to punch a 5 mm plug out of each plate. These 2 plugs were placed on opposite edges of the plate. A 10 mm radius was be drawn around the location of the plugs (FIG. 1). Plates were stored, lightly covered, overnight at room temperature (˜20° C., <40% humidity). […]
Young adult hermaphrodites are tested in the Chemotaxis Assay with no more than three replicates per day, over a minimum of three days, with 100-200 worms/assay plate. The […] Chemotaxis Index (CI) was calculated as follows: […]

[2] = molecular target: T1, NPR-10B (Caenorhabditis elegans, UniProt Q6EUU1); test: In vitro GPCR activation assay (CHO-K1 cells, aequorin, human Gα16), NPR-10B; format: cell-based, C. elegans; conditions: title: NPR-10B; calcium/aequorin luminescence in transfected CHO-K1 cells
T1 sequence (Q6EUU1 1-362): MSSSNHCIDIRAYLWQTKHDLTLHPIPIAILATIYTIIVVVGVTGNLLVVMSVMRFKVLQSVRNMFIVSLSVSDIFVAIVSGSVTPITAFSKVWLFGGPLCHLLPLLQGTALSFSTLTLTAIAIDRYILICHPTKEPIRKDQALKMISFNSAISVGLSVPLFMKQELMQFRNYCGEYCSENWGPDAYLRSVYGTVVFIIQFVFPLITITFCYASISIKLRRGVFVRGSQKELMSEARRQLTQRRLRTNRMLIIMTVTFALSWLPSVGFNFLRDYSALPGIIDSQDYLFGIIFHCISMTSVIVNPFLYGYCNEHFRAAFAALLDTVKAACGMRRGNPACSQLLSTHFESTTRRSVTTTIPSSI
Protocol: Using Chinese hamster ovarian (CHO) cell cultures stably expressing the promiscuous G protein, Gα16, and the calcium reporter, aequorin, it was observed that both isoforms of NPR-10 are activated by seven of the ten FLP-3 peptides, with half-maximal effective concentrations (EC50) in the nM range (FIG. 14A-FIG. 14H, Table V). […] This peptide contains an R-to-K mutation within the C-terminal motif, which may explain the lack of receptor activation.
(§1) The GPCR activation assay was performed as previously described Van Sinay, E. et al. Proc. Natl Acad. Sci. USA 114, E4065-e4074 (2017) and Peymen, K. et al. PLoS Genet. 15, e1007945 (2019). Briefly, npr-10 and frpr-16 cDNAs were cloned into the pcDNA3.1 TOPO expression vector (Thermo Fisher Scientific). A CHO-K1 cell line (PerkinElmer, ES-000-A24) stably expressing apo-aequorin targeted to the mitochondria (mtAEQ) and human Gα16 was transiently transfected with the receptor cDNA construct or the empty pcDNA3.1 vector using Lipofectamine LTX and Plus reagent (Thermo Fisher Scientific). Cells were shifted to 28° C. one day later and allowed to incubate for 24 h. On the day of the assay, cells were collected in BSA medium (DMEM/Ham's F12 with 15 mM HEPES, without phenol red, 0.1% BSA) and loaded with […] coelenterazine h (Thermo Fisher Scientific) for 4 h at room temperature. The incubated cells were then added to synthetic peptides dissolved in DMEM/BSA, and luminescence was measured for 30 s at […] using a Mithras LB940 (Berthold Technologies) or MicroBeta LumiJet luminometer (PerkinElmer). After 30 s of readout, 0.1% triton X-100 was added to lyse the cells, resulting in a maximal calcium response that was measured for 10 s. After initial screening, concentration-response curves were constructed for HPLC-purified FLP-3 peptides by subjecting the transfected cells to each peptide in a concentration range from 1 pM to 10 μM. Cells transfected with an empty vector were used as a negative control. Assays were performed in triplicate on at least two independent days. Concentration-response curves were fitted using Prism v. 7 (nonlinear regression analysis with a sigmoidal concentration-response equation).

[3] = molecular target: T2, FRPR-16 (Caenorhabditis elegans, UniProt Q21957); test: In vitro GPCR activation assay (CHO-K1 cells, aequorin, human Gα16), FRPR-16; format: cell-based, C. elegans; conditions: calcium/aequorin luminescence in transfected CHO-K1 cells
T2 sequence (Q21957 1-340): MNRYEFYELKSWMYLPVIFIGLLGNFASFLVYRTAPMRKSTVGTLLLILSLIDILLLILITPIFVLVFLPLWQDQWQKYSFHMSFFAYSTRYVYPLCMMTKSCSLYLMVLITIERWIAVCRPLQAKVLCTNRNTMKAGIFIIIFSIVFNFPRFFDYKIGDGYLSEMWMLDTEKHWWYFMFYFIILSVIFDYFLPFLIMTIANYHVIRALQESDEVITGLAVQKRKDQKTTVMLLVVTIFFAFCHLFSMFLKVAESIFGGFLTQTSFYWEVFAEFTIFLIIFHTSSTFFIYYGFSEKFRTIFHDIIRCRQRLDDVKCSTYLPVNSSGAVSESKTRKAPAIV
Protocol: as §1

[4] = tested on: flp-3 lof males; test: Drop avoidance assay to ascr #8 after FLP-3 peptide rescue-by-feeding; format: in vivo, C. elegans; conditions: flp-3 lof males raised on peptide; 1 μM ascr #8; in words
Protocol: To identify which FLP-3 peptides are required for male avoidance of ascr #8, a peptide feeding approach https://www.nature.com/articles/s42003-021-02547-7-ref-CR59 was adopted, similar to RNAi feeding (FIG. 16A). Using Gateway Cloning technology, FLP-3 peptide coding sequences were inserted into a bacterial expression vector. As a control, first the FLP-3 peptides were tested that are still encoded in the ok3625 allele which are insufficient to drive the proper ascr #8 response in vivo: FLP-3-1 (SPLGTMRFamide) (SEQ ID NO: 10) and FLP-3-4 (NPLGTMRFamide) (SEQ ID NO: 11). Then flp-3 lof animals were reared on lawns of bacteria expressing the rescue constructs, and their progeny were assayed for avoidance (FIG. 16B-FIG. 16D).
Assays were performed as described previously in Chute, C. D. & Srinivasan, J. Semin. Cell Dev. Biol. 33, 18-24 (2014); Chute, C. D. et al. Nat. Commun. 10, 3186 (2019); and Hilliard, M. A. et al., EMBO J. 23, 1101-1111 (2004). Fifty to sixty L4 worms were segregated by sex and stored at 20° C. for 5 h to overnight to be assayed as young adults. One to four hours prior to the assay, the lids of unseeded plates were tilted to allow any excess moisture to evaporate off the plates. At the time of the assay, 10 or more animals were transferred onto each of the dried, unseeded plates. A drop of either water or 1 μM ascr #8 was placed on the tail of forward moving animals, and their response was scored as either an avoidance response, or no response. The total number of avoidances was divided by the total number of drops to generate an avoidance index for that plate. This was repeated for at least 10 plates over at least three different days.
SCRAMBLE control or FLP-3 peptide constructs were grown overnight in LB media containing […] ampicillin at 37° C. and diluted to an OD600 of 1.0 prior to seeding on NGM plates containing […] ampicillin and 1 mM IPTG. The 75 μL lawn was left to dry and grow overnight at room temperature before three L4 animals were placed on the plates. Males were selected for testing in the same manner as described above but were isolated onto plates also seeded with the same peptide on which they had been reared. Animals were then assayed using either the avoidance assay or single worm assay.

[5] = tested on: flp-3 lof males; test: Single worm attraction assay (SWAA) to ascr #8 after FLP-3 peptide rescue-by-feeding; format: in vivo, C. elegans; conditions: flp-3 lof males raised on peptide; in words
Protocol: The outer forty wells of a 48-well suspension culture plate (Olympus Plastics, Cat #: 25-103) were seeded with 200 μL of standard NGM agar. To prepare the plates for the assay, they were acclimated to room temperature, at which point each well was seeded with 65 μL of OP50 E. coli. The assay plates were then transferred to a 37° C. incubator with the lid tilted for 4 h to allow the bacterial culture to dry on the agar. Once the bacterial culture dried, the lid was replaced the plate was stored at 20° C. until used in the assay. Fifty to sixty L4 worms were segregated by sex and stored at 20° C. for 5 h to overnight to be assayed as young adults. 0.8 μL of either vehicle control or ascaroside #8 was placed in the center of the well corresponding to that condition within the quadrant being tested, following a random block design (FIG. 11A). A single worm was placed in each of the 10 wells to be assayed, and the plate was transferred to a light source and camera and recorded for 15 m. This process was repeated for all four quadrants. Each strain and sex were assayed over five plates assayed on at least three different days. Raw dwell time values were calculated by subtracting the time a worm exited the cue (center of the well in spatial controls), from the time it entered, as in the SRA. This was determined per visit, and the average dwell time was calculated for each animal in the quadrant. Averages of the four-quadrant means were determined per plate, and a minimum of five plates were assayed per strain/condition. The mean raw dwell time across five plates was calculated and used for statistical analyses and graphical display. The average dwell time in the ascaroside was divided by the average dwell time within the vehicle control per plate to generate a fold-change. To transform the data, the log of this fold-change was taken, and the average log(fold-change) was used for statistical analyses and graphical display. […]

| EC50 [2] [nM] | EC50 [3] [nM] | Substance | rescue of NaCl chemotaxis ([1]; ins-6 lof worms fed peptide) | chemotaxis on overexpression by feeding ([1]; wild-type animals fed INS-6) | rescue of avoidance phenotype to ascr #8 (Avoidance Index) [4] | rescue of attraction to ascr #8 (dwell time, log(fold-change)) [5] |
| --- | --- | --- | --- | --- | --- | --- |
| – | – | VPAPGETRACGRKLISLVMAVCGDLCNPQEGKDIATECCGNQCSDDYIRSACCP-NH2 (cysteine pairing not given here) [INS-6] | complete rescue of NaCl chemotaxis; also recorded: restores the Chemotaxis Index at a level similar to the canonical transgenic rescue; also recorded: complete restoration of attraction to high salt concentration | does not result in changes in attraction towards 750 mM NaCl; also recorded: does not affect chemotaxis in wild type animals; also recorded: slight defects in CI towards high salt | – | – |
| 366 | 31.7 | TPLGTMRF-NH2 [FLP-3-2, TPLGTMRFamide] | – | – | able to abolish the avoidance phenotype; also recorded: undo the Avoidance phenotype associated with the flp-3 mutation | not able to restore the animal's ability to be attracted to ascr #8; also recorded: seems to make the animals less attracted to the cue |
| 760 | 88.3 | NPENDTPFGTMRF-NH2 [FLP-3-9, NPENDTPFGTMRFamide] | – | – | lack of avoidance to ascr #8; also recorded: undo the Avoidance phenotype associated with the flp-3 mutation | full rescue of their ability to be attracted to the cue; also recorded: restores the attraction to wild-type |
